Each compound was assayed on transgenic mice that express both human CETP and human apolipoprotein A-1 (assay: Assay of plasma lipids in vivo (HDL cholesterol elevation)). Settings: single oral dose 30 mg/kg; 8 hr after dosing; serum HDL cholesterol relative to control; human CETP/human apoA-1 transgenic mice.
Description: Assay of Plasma Lipids In Vivo
Activity of compounds of this invention in vivo can be determined by comparing the level of elevation of HDL cholesterol relative to control by a given amount of a compound in a CETP-containing animal species. A strain of transgenic mice that express both human CETP and human apolipoprotein A-1 (Taconic, Germantown, N.Y.) is used to test compounds of this invention. Test compounds are administered once orally in selected aqueous or oil based vehicles. At various times after dosing, ranging from 4 h to 24 h, blood is obtained. Blood is allowed to clot and serum is obtained by centrifugation. HDL cholesterol levels in the serum is determined by HDL-C plus reagents (Roche/Hitachi, Indianapolis, Ind.) with a clinical chemistry analyzer (Roche/Hitachi, Indianapolis, Ind.). Additional serum lipids can be analyzed by enzymatic methods. Lipids in the VLDL, LDL and HDL fractions are analyzed by enzymatic methods after precipitation or size exclusion chromatography.

Going from `CCC1CC(N(Cc2cc(C(F)(F)F)cc(C(F)(F)F)c2)c2nnn(C)n2)c2nc(OC)ccc2N1C(=O)OC(C)C` (racemic) [Example 8, (+/−)-cis-4-[(3,5-Bis-trifluoromethyl-benzyl)-2-methyl-2H-tetrazol-5-yl)-amino]-2-ethyl-6-methoxy-3,4-dihydro-2H-[1,5]naphthyridine-1-carboxylic acid isopropyl ester] to `CC[C@@H]1C[C@H](N(Cc2cc(C(F)(F)F)cc(C(F)(F)F)c2)c2nnn(C)n2)c2nc(C(F)(F)F)ccc2N1C(=O)OC(C)C` [Example 11], the “% HDL cholesterol increase” value falls from 313% to 134%.

Compared with `CC(C)OC(=O)N1c2ccc(C(F)(F)F)nc2C(N(Cc2cc(C(F)(F)F)cc(C(F)(F)F)c2)c2nnn(C)n2)CC1C1CC1` (racemic) [Example 52, (+/−)-cis-4-[(3,5-Bis-trifluoromethyl-benzyl)-(2methyl-2H-tetrazole-5-yl)-amino]-2-cyclopropyl-6-trifluoromethyl-3,4-dihydro-2H-[1,5]naphthyridine-1-carboxylic acid isopropyl ester], `CC[C@H]1C[C@@H](N(Cc2cc(C(F)(F)F)cc(C(F)(F)F)c2)c2nnn(CCO)n2)c2nc(C(F)(F)F)ccc2N1C(=O)OC(C)C` (stereo in doubt) [Example 18, (2S,4R)-4-[(3,5-Bis-trifluoromethyl-benzyl)-[2-(2-hydroxy-ethyl)-2H-tetrazol-5-yl)-amino]-2-ethyl-6-trifluoromethyl-3,4-dihydro-2H-[1,5]naphthyridine-1-carboxylic acid isopropyl ester] is higher in “% HDL cholesterol increase” value: 66% for the first, 187% for the second.

`CC[C@@H]1C[C@H](N(Cc2cc(C(F)(F)F)cc(C(F)(F)F)c2)c2nnn(CCN)n2)c2nc(C(F)(F)F)ccc2N1C(=O)OC(C)C` [Example 15, (2R,4S)-cis-4-[[2-(2-Amino-ethyl)-2H-tetrazol-5-yl]-(3,5-bis-trifluoromethyl-benzyl)-amino]-2-ethyl-6-trifluoromethyl-3,4-dihydro-2H-[1,5]naphthyridine-1-carboxylic acid isopropyl ester] was tested, and the “% HDL cholesterol increase” value was 91%.

— patent publication US7470705B2, “Compounds and methods for treating dyslipidemia” (Eli Lilly and Company, priority 2004, dated 2008)
